Laboratory results taken from patent US10471005B2, “Low dose pharmaceutical composition” (TORRENT PHARMACEUTICALS LIMITED, priority 2013, dated 2019).
Several values for one entry are separate records, joined by “and”; a condition that tells them apart may be missing. Equal entries are not always repeated. Where two headings read alike, the source gives them in different places.

Legend:
[1] = tested on: ischemic acute kidney injury (AKI); settings: administered intraperitoneally; cited from earlier work
DSS induced colitis = test: Effectiveness in DSS induced colitis model; assay type: in vivo, female BALB/c mice; settings: 1 and 2.5 mg/kg bid oral, day 5 to day 14, vs placebo (5% DSS)
Protocol: 5% DSS (MW-36000-50000) dissolved in drinking water was provided to female BALB/c mice for 11 days (Gunther et al, The Journal of Pharmacology and Experimental Therapeutics, 1999; Vol. 292, No. 1; 22-30) followed by DSS free period till day 14. Pharmaceutical composition comprising compound A was administered to these animals from day 5 to day 14 at the dose of 1 and 2.5 mg/kg of compound A twice a day, at 10 ml/kg dosing volume by oral route (PO). Placebo group was given similar composition without compound A. Placebo (composition without compound A) was also administered to healthy animals, which were given only drinking water and represented as placebo (water). Treatment related attenuation in body weight loss, improved disease activity index (DAI, a composite score ranging from 0 to maximum 12 considering the loss in body weight, fecal consistency and presence or absence of occult blood in feces) and colon histopathology (Score) were established in 10 days treated animals (from day 5 to day 14) to check efficacy of compound A. Body weights were monitored daily, DAI was captured every alternate day whereas histopathological evaluation of colonic damage was performed in formalin fixed colon tissue after study completion, similar to example 5. (*p<0.05 vs placebo (5% DSS)) and FIG. 4.

[2] = Pharmacokinetic evaluation in TNBS induced colitis model (plasma levels, LC-MS/MS); assay type: in vivo, male BALB/c mice; settings: TNBS colitis mice; for Cmax / AUC: male, BALB/c, mouse, 1 mg/kg twice a day, after fifth dose, plasma; for AUC: read-out: AUC0—12
Protocol: (§1) Animal with TNBS (2,4,6 trinitrobenzene sulfonic acid) induced colitis is an established model for IBD. Male BALB/c mice were kept for 16 hours fasting and were administered 0.1 ml TNBS solution (containing 1.5 mg of TNBS in 50% ethanol) rectally 4 cm inside the anus with the help of flexible polyethylene catheter under isoflurane anesthesia. Immediately after TNBS administration, mice were held vertically in a head-down position for an additional 45-60 sec to ensure retention and distribution of TNBS solution within the colon of animal. (Fiorucci et al, Immunity, 2002; Vol. 17; 769-780)
Pharmaceutical composition comprising compound A was administered to mice with TNBS induced colitis (as developed according to example 3) at the dose of 1 mg/kg of compound A twice a day, at 10 ml/kg dosing volume by intraperitoneal route and peroral route. Dosing was initiated a day prior to induction (day −1) of TNBS colitis. Blood samples of treated animals were collected before administration of fifth dose (0 min) and at various time points after fifth dose administration. Blood samples were centrifuged within one hour of collection at 4000 rpm for 10 min at 4° C. and plasma was separated. These plasma samples were analyzed for compound A levels using LC-MS/MS method. Pharmacokinetic parameters of the compound A were calculated by non-compartmental analysis method using Phoenix WinNolin version 6.2.

HSP70 = HSP70 expression in colon, DSS model of colitis (immunoblotting); assay type: in vivo, female BALB/c mice; settings: single oral 2.5 mg/kg, six hours after administration, vs placebo
Protocol: Effect of oral administration of pharmaceutical composition of compound A on expression of HSP70 was checked in DSS model of colitis.
5% DSS (MW-36000-50000) dissolved in drinking water was provided to female BALB/c mice for 5 days. Single dose of compound A was administered to these animals on day 5. Composition comprising compound A was administered at the dose of 2.5 mg/kg, at 10 ml/kg dosing volume by oral route (PO). Placebo group was given similar composition without compound A. Six hours after administration, animals were sacrificed and colon were processed for whole tissue extract preparation. Proteins were separated on SDS-PAGE followed by immunoblotting, employing HSP70 antibody.

TNF-α = test: Inflammatory marker mRNA expression in colon, DSS model: TNF-α; assay type: in vivo, female BALB/c mice; settings: 2.5 mg/kg bid oral day 5 to day 14, relative to placebo
Protocol: (§2) Effect of oral administration of pharmaceutical composition of compound A on expression of interleukin (IL)-10, TNF-α, and interferon (INF)-γ mRNA was assessed in DSS model of colitis.
(§3) Pharmaceutical composition comprising compound A was administered 2.5 mg/kg twice a day from day 5 to day 14 to DSS induced colitis mice (as developed according to example 7) by oral route (PO). Animals were sacrificed on day 14 and colon were processed for whole tissue extract preparation. Expression of interleukin (IL)-10, TNF-α, and interferon (INF)-γ mRNA along with expression of 18S rRNA was monitored employing gene specific primer and probes (Applied Biosystems, Foster City, Calif., USA) by quantitative real-time polymerase chain reaction on ABI 7900 HT (Applied Biosystems, Foster City, Calif., USA). mRNA expression was normalized relative to the expression of 18S rRNA. Placebo group was given similar composition without compound A. The results, as given in FIG. 7, were expressed as fold induction relative to placebo (composition without compound A).

interferon (INF)-γ = test: Inflammatory marker mRNA expression in colon, DSS model: INF-γ; assay type: in vivo, female BALB/c mice; settings: 2.5 mg/kg bid oral day 5 to day 14, relative to placebo
Protocol: as §2, §3

interleukin (IL)-10 = test: Inflammatory marker mRNA expression in colon, DSS model: IL-10; assay type: in vivo, female BALB/c mice; settings: 2.5 mg/kg bid oral day 5 to day 14, relative to placebo
Protocol: as §2, §3

TNBS induced colitis = test: Effectiveness in TNBS induced colitis model; assay type: in vivo, male BALB/c mice
Protocol: as §1
Pharmaceutical composition comprising compound A was administered orally to mice with TNBS induced colitis (as developed according to example 3) at the dose of 1 mg/kg of compound A twice a day, at 10 ml/kg dosing volume. Dosing was initiated a day prior to induction (day −1) of TNBS colitis. Treatment related attenuation in body weight loss, improved disease activity index (DAI, a composite score ranging from 0 to maximum 12 considering the loss in body weight, fecal consistency and presence or absence of occult blood in feces), healthier colon (macroscopy score) and rate of survival were established in the 6 days treated animals (from day −1 to day 4) to check efficacy of compound A. Body weights were monitored daily, DAI was captured on day 2 and day 4 whereas colonic damage (macroscopy score and histopathological score) was scored based on extent of colonic damage. Histopathological evaluation of colonic damage was performed in formalin fixed colon tissue sections, stained with hematoxylin and eosin, at 10× magnification using Leica® DM2500 microscope, after study completion. (*p<0.05 vs placebo/vehicle {composition without compound A}), FIG. 5 and FIG. 8.
Similar to procedures given above in Example 5, pharmaceutical composition of compound A was administered, twice a day, in mice with TNBS induced colitis through intraperitoneal route and oral route. Treated animals were analyzed for improved disease activity index and healthier colon (macroscopy score).

[3] = Excretion of compound A in feces, DSS induced colitis model; assay type: in vivo, female BALB/c mice; settings: for dose excreted: female, BALB/c, mouse, feces, po
Protocol: 5% DSS (MW-36000-50000) dissolved in drinking water was provided to female BALB/c mice throughout the study duration of 9 days. Single administration of pharmaceutical composition comprising compound A at the dose of 1 mg/kg of compound A, at 10 ml/kg dosing volume was performed orally on day 5. Feces were collected for 96 hours post administration of the composition. Feces collected was analyzed for compound A levels using LC-MS/MS method.

[4] = 1 mg/kg bid oral, 6 days, vs placebo
[5] = single oral 1 mg/kg, feces collected 96 hours, individual animals, 1 mg/kg

Cmax ([2]; ip, Intraperitoneal): 399 ng/mL
AUC ([2]; ip, Intraperitoneal): 256 ng·h/mL
Cmax ([2]; Per Oral): 13.2 ng/mL
AUC ([2]; Per Oral): 63.1 ng·h/mL
dose excreted ([3]; 1 mg/kg, single oral 1 mg/kg, feces collected 96 hours, individual animals, read-out: % Recovery in feces): 63.9%
dose excreted ([3]; 1 mg/kg, single oral 1 mg/kg, feces collected 96 hours, mean of 5 animals, read-out: Mean % Recovery in feces): 58.7%
Compound A recovered from feces ([3]; oral composition, diseased animals): more than 50%
% Recovery in feces [3, 5]: 62.35% and 52.66% and 50.88% and 63.60%
SMILES: O=C(O)CNC(=O)c1c(O)nc2sc3c(n2c1=O)CCCCC3 [compound A, [(2-hydroxy-4-oxo-6,7,8,9-tetrahydro-4H,5H-10-thia-1,4a-diaza-benzo[a]azulene-3-carbonyl)-amino]-acetic acid]
Effectiveness in ischemic acute kidney injury (AKI) [1]: effective
Disease activity index (DAI) (DSS induced colitis): improving the disease activity index
Extent of colon damage (colitis score) (DSS induced colitis): attenuating extent of colon damage
Rate of weight loss (DSS induced colitis): reducing the rate of weight loss
Tissue architecture (colon histopathology) (DSS induced colitis): preserving tissue architecture
Systemic concentration, oral compared to IP administration ([2]; equal dose): significantly lower systemic concentration
HSP70 protein expression in colon (HSP70): pronounced induction
TNFα mRNA expression in colon (TNF-α): reduction
INFγ mRNA expression in colon (interferon (INF)-γ): reduction
IL-10 mRNA expression in colon (interleukin (IL)-10): elevation
Disease activity index (DAI) (TNBS induced colitis; [4]): improving the disease activity index
Extent of colon damage (macroscopy, histopathology) (TNBS induced colitis; [4]): attenuating the extent of colon damage
Rate of weight loss (TNBS induced colitis; [4]): reducing rate of weight loss
Survival rate (TNBS induced colitis; [4]): improving survival rate
Therapeutic efficacy (DAI, macroscopy score), oral compared to IP administration (TNBS induced colitis; twice a day, oral even at lower doses): better therapeutic efficacy as compared to IP administration
Total amount of compound A in feces [3, 5]: 15.34 µg and 13.71 µg and 12.63 µg and 12.71 µg and 12.08 µg
